Measurements as given in US8247211B2, “Glycopeptide antibiotics” (American Cyanamid Company, priority 2001, dated 2012).

Legend:
Test in all cases: In vitro antibacterial evaluation: minimum inhibitory concentration (MIC), broth dilution method
Assay type in all cases: cell-based
Escherichia coli = system: Escherichia coli
Outline: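 NCCLS M7-A2 broth dilution; Muller-Hinton II […]; 5×10^5 CFU/mL; 64-0.06 μg/mL. MIC = lowest concentration with no growth.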

Streptococcus sp. = system: Streptococcus sp.
Outline: (§1)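 Using Muller-Hinton II […] and an inoculum of 5×10^5 CFU/mL, antibiotic dilutions from 64 down to 0.06 μg/mL were tested following NCCLS M7-A2. The MIC is the lowest concentration inhibiting growth, including in methicillin-, penicillin- or vancomycin-resistant clinical isolates.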

Enterococcus sp. = system: Enterococcus sp.
Outline: as §1

Staphylococcus sp. = system: Staphylococcus sp.
Outline: as §1

[1] = broth dilution, inoculum 5×10^5 CFU/mL, 18 hours at 35° C.
[2] = broth dilution, 5×10^5 CFU/mL, 18 hours at 35° C.

CC(c1ccccc1)C1NC(=O)CNC(=O)C(CO)NC(=O)C(C(O)C2CNC(=N)N2C2OC(CO)C(O)C(O)C2O)NC(=O)C(C(O)C2CNC(=N)N2)NC(=O)C(Cc2ccc(OC3OC(CO)C(OC4OC5COC6(OC5C(O)C4O)C(C)CCCC6C)C(O)C3O)cc2)NC1=O (stereo not drawn) [Example 206, Cyclo[glycyl-β-methylphenylalanyl-O-[4-O-[4,6-O-(2,6-dimethylcyclohexylidene)hexopyranosyl]hexopyranosyl]tyrosyl-3-(2-iminoimidazolidin-4-yl)seryl-3-(3-hexopyranosyl-2-iminoimidazolidin-4-yl)serylseryl]]
2 µg/mL: MIC Enterococcus avium (GC 4558) (Enterococcus sp.; Enterococcus avium (GC 4558), 18 hours at 35° C.) | MIC Enterococcus faecalis (GC 2242) (Enterococcus sp.; Enterococcus faecalis (GC 2242), 18 hours at 35° C.) | MIC Enterococcus faecalis (GC 2691) (Enterococcus sp.; Enterococcus faecalis (GC 2691), 18 hours at 35° C.) | MIC Enterococcus faecalis (GC 4552) (Enterococcus sp.; Enterococcus faecalis (GC 4552), 18 hours at 35° C.) | MIC Enterococcus faecalis (GC 4553) (Enterococcus sp.; Enterococcus faecalis (GC 4553), 18 hours at 35° C.) | MIC Enterococcus faecalis (GC 4554) (Enterococcus sp.; Enterococcus faecalis (GC 4554), 18 hours at 35° C.) | MIC Enterococcus faecium (GC 2243) (Enterococcus sp.; Enterococcus faecium (GC 2243), 18 hours at 35° C.) | MIC Enterococcus faecium (GC 4557) (Enterococcus sp.; Enterococcus faecium (GC 4557), 18 hours at 35° C.) | MIC Enterococcus avium (GC 4558) (Enterococcus sp.; [1]) | MIC Enterococcus faecalis (GC 2242) (Enterococcus sp.; [1]) | MIC Enterococcus faecalis (GC 2691) (Enterococcus sp.; [1]) | MIC Enterococcus faecalis (GC 4552) (Enterococcus sp.; [1]) | MIC Enterococcus faecalis (GC 4553) (Enterococcus sp.; [1]) | MIC Enterococcus faecalis (GC 4554) (Enterococcus sp.; [1]) | MIC Enterococcus faecium (GC 2243) (Enterococcus sp.; [1]) | MIC Enterococcus faecium (GC 4557) (Enterococcus sp.; [1])
0.5 µg/mL: MIC Staphylococcus haemolyticus (GC 4546) (Staphylococcus sp.; strain GC 4546) | MIC Coagulase Negative Staphylococcus (GC 4548) (Staphylococcus sp.; strain GC 4548) | MIC Coagulase Negative Staphylococcus (GC 4549) (Staphylococcus sp.; strain GC 4549)
0.25 µg/mL: MIC Streptococcus agalactiae (GC 4564) (Streptococcus sp.; Streptococcus agalactiae (GC 4564), 18 hours at 35° C.) | MIC Streptococcus agalactiae (GC 4564) (Streptococcus sp.; [1])
32 µg/mL: MIC Escherichia coli (ATCC 25922) (Escherichia coli; Escherichia coli (ATCC 25922), 18 hours at 35° C.) | MIC Escherichia coli (GC 4559) (Escherichia coli; Escherichia coli (GC 4559), 18 hours at 35° C.)
<0.12 µg/mL: MIC Streptococcus pneumoniae (ATCC 6301) (Streptococcus sp.; Streptococcus pneumoniae (ATCC 6301), 18 hours at 35° C.) | MIC Streptococcus pneumoniae (GC 1894) (Streptococcus sp.; Streptococcus pneumoniae (GC 1894), 18 hours at 35° C.) | MIC Streptococcus pneumoniae (GC 4565) (Streptococcus sp.; Streptococcus pneumoniae (GC 4565), 18 hours at 35° C.) | MIC Streptococcus pneumoniae (ATCC 6301) (Streptococcus sp.; [1]) | MIC Streptococcus pneumoniae (GC 1894) (Streptococcus sp.; [1]) | MIC Streptococcus pneumoniae (GC 4565) (Streptococcus sp.; [1])
1 µg/mL: MIC Escherichia coli (GC 4560) (Escherichia coli; Escherichia coli (GC 4560), 18 hours at 35° C.) | MIC Streptococcus pyogenes (GC 4563) (Streptococcus sp.; Streptococcus pyogenes (GC 4563), 18 hours at 35° C.) | MIC Streptococcus pyogenes (GC 4563) (Streptococcus sp.; [1]) | MIC Enterococcus faecalis (ATCC 29212) (Enterococcus sp.; Enterococcus faecalis (ATCC 29212), 18 hours at 35° C.) | MIC Enterococcus faecalis (GC 3059) (Enterococcus sp.; Enterococcus faecalis (GC 3059), 18 hours at 35° C.) | MIC Enterococcus faecalis (GC 6189) (Enterococcus sp.; Enterococcus faecalis (GC 6189), 18 hours at 35° C.) | MIC Enterococcus faecium (GC 4556) (Enterococcus sp.; Enterococcus faecium (GC 4556), 18 hours at 35° C.) | MIC Enterococcus faecalis (ATCC 29212) (Enterococcus sp.; [1]) | MIC Enterococcus faecalis (GC 3059) (Enterococcus sp.; [1]) | MIC Enterococcus faecalis (GC 6189) (Enterococcus sp.; [1]) | MIC Enterococcus faecium (GC 4556) (Enterococcus sp.; [1]) | MIC Staphylococcus aureus (ATCC 29213) (Staphylococcus sp.; strain ATCC 29213) | MIC Staphylococcus aureus (GC 1131) (Staphylococcus sp.; strain GC 1131) | MIC Staphylococcus aureus (GC 3051) (Staphylococcus sp.; strain GC 3051) | MIC Staphylococcus aureus (GC 3053) (Staphylococcus sp.; strain GC 3053) | MIC Staphylococcus aureus (GC 4541) (Staphylococcus sp.; strain GC 4541) | MIC Staphylococcus aureus (GC 4542) (Staphylococcus sp.; strain GC 4542) | MIC Staphylococcus aureus-SMITH (GC 4543) (Staphylococcus sp.; strain GC 4543) | MIC Staphylococcus aureus (GC 4544) (Staphylococcus sp.; strain GC 4544) | MIC Staphylococcus aureus (GC 4545) (Staphylococcus sp.; strain GC 4545) | MIC Coagulase Negative Staphylococcus (GC 4547) (Staphylococcus sp.; strain GC 4547) | MIC Coagulase Negative Staphylococcus (GC 4551) (Staphylococcus sp.; strain GC 4551)

CC(c1ccccc1)C1NC(=O)CNC(=O)C(CO)NC(=O)C(C(O)C2CNC(=N)N2C2OC(CO)C(O)C(O)C2O)NC(=O)C(C(O)C2CNC(=N)N2)NC(=O)C(Cc2ccc(OC3OC(CO)C(OC4OC5COC(c6ccc7ccccc7c6)OC5C(O)C4O)C(O)C3O)cc2)NC1=O (stereo not drawn) [Example 145, Cyclo[glycyl-β-methylphenylalanyl-O-[4-O-[4,6-O-(2-naphthylmethylene)hexopyranosyl]-hexopyranosyl]tyrosyl-3-(2-iminoimidazolidin-4-yl)seryl-3(3-hexopyranosyl-2-iminoimidazolidin-4-yl)serylseryl]]
32 µg/mL: MIC Escherichia coli (GC 4559) (Escherichia coli; strain GC 4559)
1 µg/mL: MIC Streptococcus pyogenes (GC 4563) (Streptococcus sp.; strain GC 4563) | MIC Enterococcus faecalis (ATCC 29212) (Enterococcus sp.; strain ATCC 29212) | MIC Enterococcus faecium (GC 2243) (Enterococcus sp.; strain GC 2243) | MIC Enterococcus faecalis (GC 2691) (Enterococcus sp.; strain GC 2691) | MIC Enterococcus faecalis (GC 3059) (Enterococcus sp.; strain GC 3059) | MIC Enterococcus faecalis (GC 4552) (Enterococcus sp.; strain GC 4552) | MIC Enterococcus faecalis (GC 4554) (Enterococcus sp.; strain GC 4554) | MIC Enterococcus faecium (GC 4556) (Enterococcus sp.; strain GC 4556) | MIC Enterococcus faecium (GC 4557) (Enterococcus sp.; strain GC 4557) | MIC Enterococcus avium (GC 4558) (Enterococcus sp.; strain GC 4558) | MIC Enterococcus faecalis (GC 6189) (Enterococcus sp.; strain GC 6189) | MIC Coagulase Negative Staphylococcus (GC 4547) (Staphylococcus sp.; [2]) | MIC Coagulase Negative Staphylococcus (GC 4549) (Staphylococcus sp.; [2]) | MIC Staphylococcus aureus (ATCC 29213) (Staphylococcus sp.; [2]) | MIC Staphylococcus aureus (GC 3051) (Staphylococcus sp.; [2]) | MIC Staphylococcus aureus (GC 3053) (Staphylococcus sp.; [2]) | MIC Staphylococcus aureus (GC 4544) (Staphylococcus sp.; [2]) | MIC Staphylococcus aureus (GC 4545) (Staphylococcus sp.; [2]) | MIC Staphylococcus aureus (ATCC 29213) (Staphylococcus sp.; strain ATCC 29213, broth dilution, 18 hours at 35° C.) | MIC Staphylococcus aureus (GC 3051) (Staphylococcus sp.; strain GC 3051, broth dilution, 18 hours at 35° C.) | MIC Staphylococcus aureus (GC 3053) (Staphylococcus sp.; strain GC 3053, broth dilution, 18 hours at 35° C.) | MIC Staphylococcus aureus (GC 4544) (Staphylococcus sp.; strain GC 4544, broth dilution, 18 hours at 35° C.) | MIC Staphylococcus aureus (GC 4545) (Staphylococcus sp.; strain GC 4545, broth dilution, 18 hours at 35° C.) | MIC Coagulase Negative Staphylococcus (GC 4547) (Staphylococcus sp.; strain GC 4547, broth dilution, 18 hours at 35° C.) | MIC Coagulase Negative Staphylococcus (GC 4549) (Staphylococcus sp.; strain GC 4549, broth dilution, 18 hours at 35° C.)
<0.5 µg/mL: MIC Escherichi coli (GC 4560) (Escherichia coli; strain GC 4560) | MIC Streptococcus pneumoniae (ATCC 6301) (Streptococcus sp.; strain ATCC 6301) | MIC Streptococcus pneumoniae (GC 1894) (Streptococcus sp.; strain GC 1894) | MIC Streptococcus agalactiae (GC 4564) (Streptococcus sp.; strain GC 4564) | MIC Streptococcus pneumoniae (GC 4565) (Streptococcus sp.; strain GC 4565) | MIC Enterococcus faecalis (GC 2242) (Enterococcus sp.; strain GC 2242) | MIC Coagulase Negative Staphylococcus (GC 4548) (Staphylococcus sp.; [2]) | MIC Coagulase Negative Staphylococcus (GC 4551) (Staphylococcus sp.; [2]) | MIC Staphylococcus aureus (GC 1131) (Staphylococcus sp.; [2]) | MIC Staphylococcus aureus (GC 4541) (Staphylococcus sp.; [2]) | MIC Staphylococcus aureus (GC 4542) (Staphylococcus sp.; [2]) | MIC Staphylococcus aureus-SMITH (GC 4543) (Staphylococcus sp.; [2]) | MIC Staphylococcus haemolyticus (GC 4546) (Staphylococcus sp.; [2]) | MIC Staphylococcus aureus (GC 1131) (Staphylococcus sp.; strain GC 1131, broth dilution, 18 hours at 35° C.) | MIC Staphylococcus aureus (GC 4541) (Staphylococcus sp.; strain GC 4541, broth dilution, 18 hours at 35° C.) | MIC Staphylococcus aureus (GC 4542) (Staphylococcus sp.; strain GC 4542, broth dilution, 18 hours at 35° C.) | MIC Staphylococcus aureus-SMITH (GC 4543) (Staphylococcus sp.; strain GC 4543, broth dilution, 18 hours at 35° C.) | MIC Staphylococcus haemolyticus (GC 4546) (Staphylococcus sp.; strain GC 4546, broth dilution, 18 hours at 35° C.) | MIC Coagulase Negative Staphylococcus (GC 4548) (Staphylococcus sp.; strain GC 4548, broth dilution, 18 hours at 35° C.) | MIC Coagulase Negative Staphylococcus (GC 4551) (Staphylococcus sp.; strain GC 4551, broth dilution, 18 hours at 35° C.)
0.5 µg/mL: MIC Coagulase Negative Staphylococcus (GC 6257) (Staphylococcus sp.; [2]) | MIC Coagulase Negative Staphylococcus (GC 6257) (Staphylococcus sp.; strain GC 6257, broth dilution, 18 hours at 35° C.)
2 µg/mL: MIC Enterococcus faecalis (GC 4553) (Enterococcus sp.; strain GC 4553)
64 µg/mL: MIC Escherichia coli (ATCC 25922) (Escherichia coli; strain ATCC 25922)
